Results taken from patent US5126326A (Bio-Mega, Inc., priority 1989, dated 1992).
Counter-ions that a name gives are not always drawn. *1 amine or outer side, *2 acyl side, *3 side chain or, on linkers, in order; H or OH if unused. Where a SMILES comes first, the peptide text is derived from it. [ ]: non-standard residue; d: D form. The star is where a group is joined. ACHPA = O=C(C[C@H](O)[C@H](CC1CCCCC1)N[*:1])[*:2]; Carboxymethyl = O=C(O)C*; X1 = O=C(C*)OCc1ccccc1; Boc = CC(C)(C)OC(=O)*

These compounds were tested against HIV protease (Human immunodeficiency virus type 1 group M subtype B, UniProt P03366) (assay: biochemical).
Procedure: Recombinant HIV Protease HPLC Assay:
The enzyme was stored as 10 μL aliquots at -70° C. The aliquots were diluted to 1/10th of the original concentration with buffer prior to use (enzyme working solution).
The substrate was made into 10 mM stock in DMSO and stored at -20° C. Prior to use, the stock was diluted with buffer to give a 400 μM solution substrate working solution.
Buffer: 2-(4-Morpholino)ethanesulfonic acid (50 mM), NaCl (25 mM) and EDTA (5 mM) was dissolved in distilled H2 O (90 mL) and the solution was adjusted to pH6 with concentrated aqueous NaOH. The latter solution was diluted to 100 mL with H2 O to give the buffer.
(2) The assay mixture was prepared by mixing 10 μL of the substrate working solution, 0.5 μL of the solution of the test compound in DMSO from step 1, and 10 μL of the enzyme working solution. (3) The assay mixture was incubated at 37° C. for 1 h. (4) The reaction was quenched by adding 100 μL of 2% aqueous TFA. […] Elution was monitored at 210 nm. (6) A control which was the assay mixture without the test compound, was subjected simultaneously to steps 3 to 5.
Inhibition Studies: Cleavage products and remaining parent substrate were quantified by either peak height or by integration of the appropriate HPLC peaks. Substrate conversion was calculated using the following relationship: [formula] Enzyme inhibition of the test compound was calculated as follows: [formula]
The percent inhibition of the enzyme was determined for a minimum of three different concentrations of the test compound. Thereafter, the IC50 was determined graphically by plotting the percent inhibition of the substrate against the concentration of the test compound.

Compound | IC50 [nM]
CC(C)C[C@H](NC(=O)C[C@H](O)[C@H](CC1CCCCC1)NC(=O)[C@@H](NC(=O)[C@@H](N)Cc1ccc(OCC(=O)OCc2ccccc2)cc1)C(C)C)C(=O)N[C@@H](Cc1ccccc1)C(N)=O [Example 2, H-Tyr(O-AcOBzl)-Val-ACHPA-Leu-Phe-NH2.HCl] (H-Y(X1)V[ACHPA]LF-NH2) | 5
CC(C)C[C@H](NC(=O)C[C@H](O)[C@H](CC1CCCCC1)NC(=O)[C@@H](NC(=O)[C@@H](N)Cc1ccc(OCC(=O)O)cc1)C(C)C)C(=O)N[C@@H](Cc1ccccc1)C(N)=O [Example 4, H-Tyr(O-AcOH)-Val-ACHPA-Leu-Phe-NH2.HCl] (H-Y(Carboxymethyl)V[ACHPA]LF-NH2) | 10
CC(C)C[C@H](NC(=O)C[C@H](O)[C@H](CC1CCCCC1)NC(=O)[C@H](Cc1ccccc1)NC(=O)[C@H](Cc1ccc(OCC(=O)O)cc1)NC(=O)OC(C)(C)C)C(=O)N[C@@H](Cc1ccccc1)C(N)=O [Example 5, Boc-Tyr(O-AcOH)-Phe-ACHPA-Leu-Phe-NH2] (Boc-Y(Carboxymethyl)F[ACHPA]LF-NH2) | 1000
CC(C)C[C@H](NC(=O)C[C@H](O)[C@H](CC1CCCCC1)NC(=O)[C@@H](NC(=O)[C@H](Cc1ccc(OCC(=O)O)cc1)NC(=O)OC(C)(C)C)C(C)C)C(=O)N[C@@H](Cc1ccccc1)C(N)=O [Example 3, Boc-Tyr(O-AcOH)-Val-ACHPA-Leu-Phe-NH2] (Boc-Y(Carboxymethyl)V[ACHPA]LF-NH2) | 52
CC(C)C[C@H](NC(=O)C[C@H](O)[C@H](CC1CCCCC1)NC(=O)[C@@H](NC(=O)[C@H](Cc1ccc(OCC(=O)OCc2ccccc2)cc1)NC(=O)OC(C)(C)C)C(C)C)C(=O)N[C@@H](Cc1ccccc1)C(N)=O [Example 1] | 70
